Results from publication PMC12434670 (Journal of Medicinal Chemistry, 2025).
Where two headings read alike, the source gives them in different places.

Tested on: Virg09 virus clones with HA mutations
Assay type: cell-based, influenza A virus
[1] = read-out: Antiviral EC50 by MTS assay, mutant A81/82_1V
[2] = read-out: Antiviral EC50 by MTS assay, mutant D90_2G
[3] = read-out: Antiviral EC50 by MTS assay, mutant F118_1L
[4] = read-out: Antiviral EC50 by MTS assay, mutant S54_2P
[5] = read-out: Antiviral EC50 by MTS assay, mutant T301_1I
[6] = read-out: EC50 against all virus clones selected under VF-57a or RL-007

SMILES | Activity against all viruses tested (in words) | EC50 [1] | EC50 [2] | EC50 [3] | EC50 [4] | EC50 [5] | EC50 [6]
O=C1c2c(O)c(=O)ccn2N([C@@H]2c3ccccc3SCc3c2ccc(F)c3F)[C@@H]2COCCN12 [BXA, baloxavir acid] | equally active | 0.003 ± 0.0007 µM | 0.0017 ± 0.0002 µM | 0.0025 ± 0.0005 µM | 0.0017 ± 0.0008 µM | 0.0019 ± 0.0001 µM | –
Cc1cc(CNC(=O)c2cc(Cl)cc(C(F)(F)F)c2)c(C)s1 [Compound 23, 3-Chloro-N-[(2,5-dimethylthiophen-3-yl)methyl]-5-(trifluoromethyl)benzamide] | – | > 40 µM | > 40 µM | > 40 µM | > 40 µM | > 40 µM | > 40 µM
CC(C)c1ccccc1NCCN1CCCCC1 [RL-007, reference compound] | – | > 40 µM | > 40 µM | > 40 µM | > 40 µM | > 40 µM | > 40 µM
